Test results published in patent publication US11267814B2, “Compounds for bone growth” (OsteoQC Inc., priority 2013, dated 2022).
Counter-ions that a name gives are not always drawn.

Legend:
[1] = molecular target: T1, hERG potassium channel (Homo sapiens, UniProt Q12809); experiment: hERG automated patch clamp assay; type: cell-based; settings: inhibition of hERG tail current, 5 minutes at room temperature, CHO-K1 cells stably expressing hERG
T1 construct: expressed in transfected cells; host or cells: CHO-K1
T1 sequence (Q12809 whole entry): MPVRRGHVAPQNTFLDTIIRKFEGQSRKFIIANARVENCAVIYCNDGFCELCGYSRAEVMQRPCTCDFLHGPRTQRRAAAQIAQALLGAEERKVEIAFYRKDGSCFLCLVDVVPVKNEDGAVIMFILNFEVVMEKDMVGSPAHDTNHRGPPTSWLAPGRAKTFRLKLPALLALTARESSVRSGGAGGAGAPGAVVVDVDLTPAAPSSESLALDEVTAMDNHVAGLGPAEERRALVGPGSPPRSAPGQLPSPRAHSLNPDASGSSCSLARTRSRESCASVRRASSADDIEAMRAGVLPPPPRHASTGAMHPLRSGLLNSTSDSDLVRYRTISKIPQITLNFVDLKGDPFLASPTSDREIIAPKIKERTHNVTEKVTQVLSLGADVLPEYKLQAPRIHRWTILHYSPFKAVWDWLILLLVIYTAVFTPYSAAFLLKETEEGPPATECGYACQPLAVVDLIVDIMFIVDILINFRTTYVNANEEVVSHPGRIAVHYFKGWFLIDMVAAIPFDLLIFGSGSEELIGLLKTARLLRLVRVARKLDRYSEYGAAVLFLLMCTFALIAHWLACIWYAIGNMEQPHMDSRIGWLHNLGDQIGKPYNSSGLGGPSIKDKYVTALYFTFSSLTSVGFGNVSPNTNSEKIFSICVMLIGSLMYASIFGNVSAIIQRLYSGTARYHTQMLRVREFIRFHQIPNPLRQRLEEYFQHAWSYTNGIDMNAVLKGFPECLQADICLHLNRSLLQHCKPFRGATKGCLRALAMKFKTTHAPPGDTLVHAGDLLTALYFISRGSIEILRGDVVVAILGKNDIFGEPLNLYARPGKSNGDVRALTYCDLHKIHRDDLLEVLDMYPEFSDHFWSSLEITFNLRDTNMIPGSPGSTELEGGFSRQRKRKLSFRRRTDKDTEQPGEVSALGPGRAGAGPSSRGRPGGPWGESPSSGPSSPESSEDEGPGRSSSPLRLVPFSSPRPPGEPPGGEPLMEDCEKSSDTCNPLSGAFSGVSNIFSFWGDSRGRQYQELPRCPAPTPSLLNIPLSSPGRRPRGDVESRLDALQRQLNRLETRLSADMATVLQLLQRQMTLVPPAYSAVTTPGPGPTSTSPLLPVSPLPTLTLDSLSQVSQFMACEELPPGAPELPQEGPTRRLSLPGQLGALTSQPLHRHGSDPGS
Method: One major type of cardiovascular toxicity associated with pharmaceutical drugs is caused by drug effects on cardiac ion channels like hERG. Drug-induced inhibition of hERG results in a prolonged QT interval, which can lead to a life-threatening ventricular arrhythmia. Therefore, the inhibitory effect of compounds described in Examples 1-46 on the hERG potassium channel was evaluated using an automated patch clamp assay as described in Mathes, C. (2006) Expert Opin. Ther. Targets, 10 (2): 319-327. CHO-K1 cells stably expressing hERG channels were used.

[2] = system: MC3T3 osteoblast cells; experiment: Osteocalcin (OCN) secretion, bone formation marker, ELISA; type: cell-based, mouse; settings: Mus musculus; IC100 class; OCN secreted from MC3T3 osteoblast cells treated with sclerostin
Method: Bone formation can also be assayed in vitro or in vivo using a serum marker for bone formation, osteocalcin (OCN), available from Biomedical Tecnhnologies, Inc. (Stoughton, Mass.). Following the manufacturer's protocol for the mouse osteocalcin EIA kit (described at the website www.btiinc.com/page/cata2.html#mouse_osteocalcin), bone formation in MC3T3 osteoblast cells was assayed by measuring the concentration of OCN.

[3] = molecular target: T2, sclerostin (Homo sapiens, UniProt Q9BQB4); experiment: Modulation of sclerostin/Wnt activity (sclerostin inhibition assay): restoring Wnt3a signaling in the presence of sclerostin; type: cell-based; settings: IC100 class; Wnt3a signaling in human embryonic cells in presence of sclerostin
T2 construct: host or cells: human embryonic cells (reporter cells)
T2 sequence (Q9BQB4 24-213): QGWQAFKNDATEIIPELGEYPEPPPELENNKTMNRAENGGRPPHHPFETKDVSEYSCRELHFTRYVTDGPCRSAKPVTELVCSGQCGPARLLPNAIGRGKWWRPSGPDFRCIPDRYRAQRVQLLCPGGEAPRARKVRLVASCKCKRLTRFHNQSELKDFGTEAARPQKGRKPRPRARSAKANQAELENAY

[4] = system: MC3T3-E1 (mouse calvarial) osteoblast cells; experiment: Rescue of sclerostin inhibition of mineralization (total calcium); type: cell-based; settings: Mus musculus, MC3T3-E1; IC100 class; calcium concentration, MC3T3 osteoblast cells treated with sclerostin; read-out: Sclerostin Inhibition of Mineralization; improvement over sclerostin alone.
Method: Mineralization (crystalline calcium phosphate formation) represents an in vitro model of bone formation. […] Following the protocol described in Li et al., Compounds were assayed for their ability to rescue the inhibition of mineralization by sclerostin in MC3T3 osteoblast cells.

## COc1ccc2c(c1)[nH]c1c(C)[n+]([O-])ccc12 [Example 21, 7-methoxy-1-methyl-9H-pyrido[3,4-b]indole pyridine N-oxide]
[1]
  hERG (1uM): + (+ indicates less than 50% inhibition of hERG tail current)
[2]
  IC100: > 10 µM
[3]
  Sclerostin Inhibition Assay; improvement over sclerostin alone.: + (+ indicates an IC100 > 10 μM)
[4]
  IC100: > 10 µM

## CC1(C)COCCN1CCn1c2cc(O)ccc2c2ccnc(C(F)(F)F)c21 [Example 32, 9-(2-(3,3-dimethylmorpholino)ethyl)-1-(trifluoromethyl)-9H-pyrido[3,4-b]indol-7-ol]
[1]
  hERG (1uM): + (+ indicates less than 50% inhibition of hERG tail current)
[2]
  IC100: < 10 µM
[3]
  Sclerostin Inhibition Assay; improvement over sclerostin alone.: ++ (++ indicates an IC100 < 10 μM)
[4]
  IC100: < 10 µM

## COc1ccc2c3ccnc(C(F)(F)F)c3n(CC(C)N(C)C)c2c1 (centres unmarked) [Example 27, 1-(7-methoxy-1-(trifluoromethyl)-9H-pyrido[3,4-b]indol-9-yl)-N,N-dimethylpropan-2-amine]
[1]
  hERG (1uM): + (+ indicates less than 50% inhibition of hERG tail current)
[2]
  IC100: < 10 µM
[3]
  Sclerostin Inhibition Assay; improvement over sclerostin alone.: ++ (++ indicates an IC100 < 10 μM)
[4]
  IC100: < 10 µM

## COc1ccc2c3ccnc(C)c3n(CC(C)N3CCCCC3)c2c1 (centres unmarked) [Example 9, 7-methoxy-1-methyl-9-(2-(piperidin-1-yl)propyl)-9H-pyrido[3,4-b]indole]
[1]
  hERG (1uM): + (+ indicates less than 50% inhibition of hERG tail current)
[2]
  IC100: < 10 µM
[3]
  Sclerostin Inhibition Assay; improvement over sclerostin alone.: ++ (++ indicates an IC100 < 10 μM)
[4]
  IC100: < 10 µM

## COc1ccc2c3ccnc(C)c3n(CCN(C)CCO)c2c1 [Example 18, 2-((2-(7-methoxy-1-methyl-9H-pyrido[3,4-b]indol-9-yl)ethyl)(methyl)amino)ethanol]
[1]
  hERG (1uM): + (+ indicates less than 50% inhibition of hERG tail current)
[2]
  IC100: < 10 µM
[3]
  Sclerostin Inhibition Assay; improvement over sclerostin alone.: ++ (++ indicates an IC100 < 10 μM)
[4]
  IC100: < 10 µM

## COc1ccc2c(c1)[nH]c1c(C)nc(OC)cc12 [Example 40, 3,7-dimethoxy-1-methyl-9H-pyrido[3,4-b]indole]
[1]
  hERG (1uM): + (+ indicates less than 50% inhibition of hERG tail current)
[2]
  IC100: < 10 µM
[3]
  Sclerostin Inhibition Assay; improvement over sclerostin alone.: ++ (++ indicates an IC100 < 10 μM)
[4]
  IC100: < 10 µM

## CC(Cn1c2ccccc2c2cccnc21)N(C)C (centres unmarked) [Example 1, N,N-dimethyl-1-(9H-pyrido[2,3-b]indol-9-yl)propan-2-amine]
[1]
  hERG (1uM): + (+ indicates less than 50% inhibition of hERG tail current)
[2]
  IC100: > 10 µM
[3]
  Sclerostin Inhibition Assay; improvement over sclerostin alone.: + (+ indicates an IC100 > 10 μM)
[4]
  IC100: > 10 µM

## COc1ccc2c3ccnc(C(F)(F)F)c3n(CCN(CCO)CCO)c2c1 [Example 35, 2,2′-((2-(7-methoxy-1-(trifluoromethyl)-9H-pyrido[3,4-b]indol-9-yl)ethyl)azanediyl)diethanol]
[1]
  hERG (1uM): + (+ indicates less than 50% inhibition of hERG tail current)
[2]
  IC100: < 10 µM
[3]
  Sclerostin Inhibition Assay; improvement over sclerostin alone.: ++ (++ indicates an IC100 < 10 μM)
[4]
  IC100: < 10 µM

## COc1ccc2c3ccnc(C)c3n(CCCN3CCOCC3)c2c1 [Example 11, 4-(3-(7-methoxy-1-methyl-9H-pyrido[3,4-b]indol-9-yl)propyl)morpholine formate]
[1]
  hERG (1uM): + (+ indicates less than 50% inhibition of hERG tail current)
[2]
  IC100: < 10 µM
[3]
  Sclerostin Inhibition Assay; improvement over sclerostin alone.: ++ (++ indicates an IC100 < 10 μM)
[4]
  IC100: < 10 µM

## COc1ccc2c3ccnc(C)c3n(CC(C)N3CCOCC3)c2c1 (centres unmarked) [Example 8, 4-(1-(7-methoxy-1-methyl-9H-pyrido[3,4-b]indol-9-yl)propan-2-yl) morpholine]
[1]
  hERG (1uM): + (+ indicates less than 50% inhibition of hERG tail current)
[2]
  IC100: < 10 µM
[3]
  Sclerostin Inhibition Assay; improvement over sclerostin alone.: ++ (++ indicates an IC100 < 10 μM)
[4]
  IC100: < 10 µM

## COc1ccc2c(c1)[nH]c1c(C(F)(F)F)nccc12 [Example 22, 7-methoxy-1-(trifluoromethyl)-9H-pyrido[3,4-b]indole]
[1]
  hERG (1uM): + (+ indicates less than 50% inhibition of hERG tail current)
[2]
  IC100: < 10 µM
[3]
  Sclerostin Inhibition Assay; improvement over sclerostin alone.: ++ (++ indicates an IC100 < 10 μM)
[4]
  IC100: < 10 µM

## COc1ccc2c3ccnc(C(F)(F)F)c3n(CCN3CCOCC3)c2c1 [Example 25, 4-(2-(7-methoxy-1-(trifluoromethyl)-9H-pyrido[3,4-b]indol-9-yl)ethyl) morpholine]
[1]
  hERG (1uM): + (+ indicates less than 50% inhibition of hERG tail current)
[2]
  IC100: < 10 µM
[3]
  Sclerostin Inhibition Assay; improvement over sclerostin alone.: ++ (++ indicates an IC100 < 10 μM)
[4]
  IC100: < 10 µM

## COc1ccc2c(c1)[nH]c1c(C)ccnc12 [Example 37, 7-methoxy-4-methyl-5H-pyrido[3,2-b]indole]
[1]
  hERG (1uM): + (+ indicates less than 50% inhibition of hERG tail current)
[2]
  IC100: < 10 µM
[3]
  Sclerostin Inhibition Assay; improvement over sclerostin alone.: ++ (++ indicates an IC100 < 10 μM)
[4]
  IC100: < 10 µM

## COc1ccc2c3ccnc(C)c3n(CC(C)N(C)C)c2c1 (centres unmarked) [Example 3, 1-(7-methoxy-1-methyl-9H-pyrido[3,4-b]indol-9-yl)-N,N-dimethylpropan-2-aminium formate]
[1]
  hERG (1uM): + (+ indicates less than 50% inhibition of hERG tail current)
[2]
  IC100: < 10 µM
[3]
  Sclerostin Inhibition Assay; improvement over sclerostin alone.: ++ (++ indicates an IC100 < 10 μM)
[4]
  IC100: < 10 µM

## COc1ccc2c3ccnc(C)c3n(CCN3CCCCC3)c2c1 [Example 10, 7-methoxy-1-methyl-9-(2-(piperidin-1-yl)ethyl)-9H-pyrido[3,4-b]indole]
[1]
  hERG (1uM): + (+ indicates less than 50% inhibition of hERG tail current)
[2]
  IC100: < 10 µM
[3]
  Sclerostin Inhibition Assay; improvement over sclerostin alone.: ++ (++ indicates an IC100 < 10 μM)
[4]
  IC100: < 10 µM

## COc1ccc2c3ccnc(C)c3n(CCN3CCOCC3)c2c1 [Example 12, 4-(2-(7-methoxy-1-methyl-9H-pyrido[3,4-b]indol-9-yl)ethyl)morpholine]
[1]
  hERG (1uM): + (+ indicates less than 50% inhibition of hERG tail current)
[2]
  IC100: < 10 µM
[3]
  Sclerostin Inhibition Assay; improvement over sclerostin alone.: ++ (++ indicates an IC100 < 10 μM)
[4]
  IC100: < 10 µM

## COc1ccc2c3ccnc(C)c3n(CCCN3CCN(C(=O)OC(C)(C)C)CC3)c2c1 [Example 15, t-butyl 4-(3-(7-methoxy-1-methyl-9H-pyrido[3,4-b]indol-9-yl)propyl) piperazine-1-carboxylate]
[1]
  hERG (1uM): ++ (++ indicates more than 50% inhibition of hERG tail current)
[2]
  IC100: < 10 µM
[3]
  Sclerostin Inhibition Assay; improvement over sclerostin alone.: ++ (++ indicates an IC100 < 10 μM)
[4]
  IC100: < 10 µM

## Cc1nccc2c3ccc(O)cc3n(CCN3CCOCC3)c12 [Example 13, 1-methyl-9-(2-morpholinoethyl)-9H-pyrido[3,4-b]indol-7-ol]
[1]
  hERG (1uM): + (+ indicates less than 50% inhibition of hERG tail current)
[2]
  IC100: < 10 µM
[3]
  Sclerostin Inhibition Assay; improvement over sclerostin alone.: ++ (++ indicates an IC100 < 10 μM)
[4]
  IC100: < 10 µM

## Cc1nccc2c3ccc(O)cc3n(CC(C)N(C)C)c12 (centres unmarked) [Example 4, 9-(2-(dimethylamino)propyl)-1-methyl-9H-pyrido[3,4-b]indol-7-ol]
[1]
  hERG (1uM): + (+ indicates less than 50% inhibition of hERG tail current)
[2]
  IC100: < 10 µM
[3]
  Sclerostin Inhibition Assay; improvement over sclerostin alone.: ++ (++ indicates an IC100 < 10 μM)
[4]
  IC100: < 10 µM

## COc1ccc2c3ccnc(C)c3n(CCCN3CCNCC3)c2c1 [Example 17, 7-methoxy-1-methyl-9-(3-(piperazin-1-yl)propyl)-9H-pyrido[3,4-b]indole trifluoroacetate]
[1]
  hERG (1uM): + (+ indicates less than 50% inhibition of hERG tail current)
[2]
  IC100: < 10 µM
[3]
  Sclerostin Inhibition Assay; improvement over sclerostin alone.: ++ (++ indicates an IC100 < 10 μM)
[4]
  IC100: < 10 µM
